{
  "source": "patent US20120232274A1",
  "about": "“PROCESS FOR PREPARATION OF CLOPIODOGREL BISULFATE FORM-1” (PHARMAZELL GMBH, priority 2009, published 2012)",
  "origin": "cited, not measured here",
  "key": {"[1]": {"conditions": "Form 2 compared with Form 1 of Clopidogrel bisulfate"}, "[2]": {"conditions": "Form 2 compared with Form 1 of Clopidogrel bisulfate", "remark": "listed apart in the source"}},
  "data": [
    {"smiles": "COC(=O)[C@H](c1ccccc1Cl)N1CCc2sccc2C1", "note": "[Form 2, Clopidogrel bisulfate]", "values": [
      {"measurement": "thermodynamic stability", "setting": "[1]", "value": "greater thermodynamic stability"},
      {"measurement": "solubility", "setting": "[2]", "value": "lower solubility than Form 1"}
    ]}
  ]
}
